From publication PMC12312563, “Structures of Listeria monocytogenes MenD in ThDP-bound and in-crystallo captured intermediate I-bound forms” (Acta Crystallographica Section F: Structural Biology …, 2025)

Experiments:
[1] = biological target: T1, LmoMenD (2-succinyl-5-enolpyruvyl-6-hydroxy-3-cyclohexene-1-carboxylate synthase, SEPHCHC synthase) (Listeria monocytogenes, UniProt A0A0H3GD77); parameters: gene menD
T1 sequence (A0A0H3GD77 1-580): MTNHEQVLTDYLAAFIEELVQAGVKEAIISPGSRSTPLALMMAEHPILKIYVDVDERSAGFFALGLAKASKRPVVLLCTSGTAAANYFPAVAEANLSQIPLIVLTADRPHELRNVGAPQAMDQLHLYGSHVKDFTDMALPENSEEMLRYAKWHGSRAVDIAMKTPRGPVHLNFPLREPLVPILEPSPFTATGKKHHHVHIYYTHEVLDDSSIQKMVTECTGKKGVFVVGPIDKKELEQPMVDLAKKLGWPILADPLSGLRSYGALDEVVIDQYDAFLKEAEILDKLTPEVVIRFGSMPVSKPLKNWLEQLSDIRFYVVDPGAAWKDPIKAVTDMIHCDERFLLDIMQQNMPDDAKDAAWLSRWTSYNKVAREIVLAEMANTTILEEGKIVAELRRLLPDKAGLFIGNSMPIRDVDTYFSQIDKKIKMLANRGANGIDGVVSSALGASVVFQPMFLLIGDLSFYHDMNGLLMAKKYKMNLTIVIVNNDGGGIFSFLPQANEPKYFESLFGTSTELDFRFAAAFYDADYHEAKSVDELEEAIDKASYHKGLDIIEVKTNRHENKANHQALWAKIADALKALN

[2] = biological target: T1, LmoMenD (2-succinyl-5-enolpyruvyl-6-hydroxy-3-cyclohexene-1-carboxylate synthase, SEPHCHC synthase); assay: UV/Vis assay of isochorismate consumption; […] decrease of activity at […]; type: biochemical; parameters: gene menD; full-length LmoMenD, strain 10403s, tag removed by TEV cleavage
[3] = biological target: the molecule itself; assay: crystal structure; LmoMenD with ThDP and Mg2+ (PDB 9e9b) or with intermediate I after a 2-oxoglutarate soak (PDB 9mnn); space group P6(4)22, one molecule in the asymmetric unit, tetramer by crystallographic symmetry; PISA analysis of assemblies

O=C(O)CCC(=O)C(=O)O [2-oxoglutarate]
UV/Vis enzyme kinetics (Km, value in supplement); turned over in crystallo to in [1]: the Km values for ThDP, 2-oxoglutarate and isochorismate and kcat were determined

O=C(O)c1cc(O)c2ccccc2c1O [DHNA, 1,4-dihydroxy-2-naphthoic acid]
inhibition at 12.5 µM [2]: 34%

B1: Listeria monocytogenes MenD (2-succinyl-5-enolpyruvyl-6-hydroxy-3-cyclohexene-1-carboxylate (SEPHCHC) synthase) (enzyme, Listeria monocytogenes (strain 10403s))
chain: GAMVTNHEQVLTDYLAAFIEELVQAGVKEAIISPGSRSTPLALMMAEHPILKIYVDVDERSAGFFALGLAKASKRPVVLLCTSGTAAANYFPAVAEANLSQIPLIVLTADRPHELRNVGAPQAMDQLHLYGSHVKDFTDMALPENSEEMLRYAKWHGSRAVDIAMKTPRGPVHLNFPLREPLVPILEPSPFTATGKKHHHVHIYYTHEVLDDSSIQKMVTECTGKKGVFVVGPIDKKELEQPMVDLAKKLGWPILADPLSGLRSYGALDEVVIDQYDAFLKEAEILDKLTPEVVIRFGSMPVSKPLKNWLEQLSDIRFYVVDPGAAWKDPIKAVTDMIHCDERFLLDIMQQNMPDDAKDAAWLSRWTSYNKVAREIVLAEMANTTILEEGKIVAELRRLLPDKAGLFIGNSMPIRDVDTYFSQIDKKIKMLANRGANGIDGVVSSALGASVVFQPMFLLIGDLSFYHDMNGLLMAKKYKMNLTIVIVNNDGGGIFSFLPQANEPKYFESLFGTSTELDFRFAAAFYDADYHEAKSVDELEEAIDKASYHKGLDIIEVKTNRHENKANHQALWAKIADALKALN
notes: MenD, Listeria monocytogenes strain 10403s, menD gene cloned from genomic DNA with printed primers that run from the start to the stop codon; Untagged protein after rTEV cleavage; The forward primer reads ATG GTG ACA..., so the MV at the start may hold one residue more than the natural protein (surmised from the residue numbering); also called LmoMenD; source: E. coli BL21 (DE3), purified …
stoichiometry N [3]: 4
